The results in this text go back to patent publication US20220324835A1 (Nurix Therapeutics, Inc., priority 2018, published 2022).

What all share (type): cell-based
The test system of test [1] is primary human B cells. Nature of the test: B cell activation assay (CD69 on anti-IgM stimulated B cells). Particulars: AUC of dose response curve (10 μM to 1 nM) of CD69 MFI normalized to DMSO control. On the procedure: Peripheral blood mononuclear cells (PBMC) were obtained either: 1) by using Ficoll-Paque™ (GE Healthcare) for separation of peripheral blood hematopoietic cells from buffy coats of healthy human donors; or 2) directly from LeukoPak donations. Human primary B cells were isolated from the PBMCs utilizing negative selection with commercial kits following the manufacturer's protocol (StemCells Catalog #17954) to yield >95% CD20+ cells assessed by flow cytometry. Primary human B cells were plated at 0.7-1×10^5 per well in a 96-well plate with Cbl-b inhibitors over a dose ranging from 10 μM to 1 nM and incubated at 37° C. 5% CO2, with a final DMSO concentration of <0.5%. Cells were stimulated with anti-IgM for 20 hours at 37° C. 5% CO2. Surface activation markers on mature CD20^+ IgD^+ B cells were monitored by FACS using an anti-CD69 antibody (BD Biosciences).
Cbl-b inhibitors were tested to determine their ability to induce or enhance surface expression of cell surface markers on B cells (e.g., CD69), which is indicative of B cell activation.
Readouts were reported as area under curve (AUC) of the dose response curve of CD69 mean fluorescence intensity (MFI) normalized to the DMSO control. Baseline for this study was the measurement obtained from primary human B cells treated with DMSO in the presence of 2.5 μg/mL of anti-IgM-F(ab′)2. […] Compounds were ranked into bins according to their readouts as follows: A indicates ≤0.5, B indicates 0.5-1.00, C indicates 1.01-1.50, and D indicates ≥1.51.

The subject of test [2] is anergic human T-cells. As to the kind of experiment: Anergic T-cell activation assessed by IFNγ secretion (ionomycin-induced anergy). Particulars: anergic T-cells re-challenged with anti-CD3 and anti-CD28 for 24 hours, read-out: IFNγ Fold change from baseline. From the text: Peripheral blood mononuclear cells (PBMC) were obtained either: 1) by using Ficoll-Paque™ (GE Healthcare) for separation of peripheral blood hematopoietic cells from buffy coats of healthy human donors; or 2) directly from LeukoPak donations. Total human primary T-cells were isolated from the PBMCs utilizing negative selection with commercial kits following the manufacturer's protocol (Miltenyi Catalog #130-096-535 (i.e., cocktail of antibodies against surface markers CD14, CD15, CD16, CD19, CD34, CD36, CD56, CD123 and CD235a were incubated with the PBMCs before passing the samples by magnetic beads for removal of cells expressing those surface markers) or StemCells Catalog #17951) to yield >95% CD3+ cells assessed by flow cytometry. The cells were activated with immobilized anti-CD3 antibody (OKT3) and soluble anti-CD28 antibody (28.2) for two days at which time they are washed and allowed to rest for three days in the absence of stimulation. They were then treated with ionomycin (Sigma) for 18-24 hours to induce anergy. Following two washes to remove the ionomycin from the samples, Cbl-b inhibitor compounds were added to the cells at the indicated concentrations (e.g. 10, 1.11 and 0.37 μM) and incubated for 1 hour. The cells were then re-challenged with anti-CD3 antibody and anti-CD28 antibody for 24 hours at which point cell free supernatants were collected and assessed for cytokines (e.g., IFNγ) by ELISA (R&D Systems or Peprotech) or Luminex multiplex kits (Procarta Life Technologies) following manufacturer's protocols.
Cbl-b inhibitors were tested to determine their ability to induce or enhance secretion of cytokines from anergic T-cells (e.g. IFNγ), which is indicative of decreased T-cell tolerance.
Readouts were reported as fold change over baseline. Baseline for this study was the measurement obtained from anergic human T-cells stimulated with immobilized anti-CD3 and soluble anti-CD28, wherein the T-cells were not incubated with a Cbl-b inhibitor (Table 7). For IFNγ changes greater than 2.5-fold over baseline were considered a positive response (Table 7). Compounds were ranked into bins according to their readout as follows for IFNγ: A indicates ≤2.50, B indicates 2.51-4.00 and C indicates >4.01.

Test [3] concerns T-cell. As to the kind of experiment: IL-2 secretion from T-cells stimulated with anti-CD3 antibody alone (Biological Example 2). Conditions: primary human total T-cells, read-out: IL-2 secretion, Anti-CD3 stimulation, fold change over baseline; for fold induction at 1 µM: 1 μM compound; for fold induction at 8 µM: 8 μM compound.
Test [4] relates to T-cell. As to the kind of experiment: CD25 cell surface staining on T-cells stimulated with anti-CD3 antibody alone (Biological Example 2). Particulars: primary human total T-cells, baseline = anti-CD3/anti-CD28 stimulated cells without inhibitor, read-out: CD25 staining, Anti-CD3 stimulation, fold change over baseline; for fold induction at 1 µM: 1 μM compound; for fold induction at 8 µM: 8 μM compound.

Each structure is given as a SMILES string.

`C[C@H](Cc1nncn1C)c1cccc(NC(=O)c2n[nH]c3c2CCC3)c1` [Compound 313, (R)-N-(3-(1-(4-Methyl-4H-1,2,4-triazol-3-yl)propan-2-yl)phenyl)-1,4,5,6-tetrahydrocyclopenta[c]pyrazole-3-carboxamide]: in test [1], the “CD69 MFI AUC” value is given as “B (B indicates 0.5-1.00)”. Also, in test [2], the fold induction at 0.37 µM was ≤ 2.5, the fold induction at 1.11 µM was ≤ 2.5 and the fold induction at 10 µM is ≤ 2.5.

Consider `Cc1cc(C(=O)Nc2cccc([C@@H](C)Cc3nncn3C)c2)nc(C2CC2)n1` [Compound 325, (S)-2-Cyclopropyl-6-methyl-N-(3-(1-(4-methyl-4H-1,2,4-triazol-3-yl)propan-2-yl)phenyl)pyrimidine-4-carboxamide], for which, in test [1], the “CD69 MFI AUC” value is on record as “C (C indicates 1.01-1.50)”. In addition, in test [2], the fold induction at 0.37 µM is ≤ 2.5, the fold induction at 1.11 µM is ≤ 2.5 and the fold induction at 10 µM was ≤ 2.5.

With `Cn1cnnc1CC1(c2cccc(NC(=O)c3nc4c(C(F)(F)F)cccc4[nH]3)c2)COC1` [Compound 335, N-(3-{3-[(4-methyl-1,2,4-triazol-3-yl)methyl]oxetan-3-yl}phenyl)-4-(trifluoromethyl)-1H-1,3-benzodiazole-2-carboxamide], the “CD69 MFI AUC” value in test [1] is reported as “B (B indicates 0.5-1.00)”. For the same compound, in test [2], the fold induction at 0.37 µM is ≤ 2.5, the fold induction at 1.11 µM lay in the range of 2.51 to 4 and the fold induction at 10 µM was > 4.01.

`Cc1cc(C(=O)Nc2cccc(C3(Cc4nncn4C)COC3)c2)nc(C2CC2)n1` [Compound 336, 2-cyclopropyl-6-methyl-N-(3-(3-((4-methyl-4H-1,2,4-triazol-3-yl)methyl)oxetan-3-yl)phenyl)pyrimidine-4-carboxamide]: in test [1], the “CD69 MFI AUC” value is listed as “D (D indicates ≥1.51)”. Moreover, in test [2], the fold induction at 0.37 µM fell in the range of 2.51 to 4, the fold induction at 1.11 µM fell in the range of 2.51 to 4 and the fold induction at 10 µM was > 4.01.

In the case of `Cc1n[nH]c(C)c1-c1cc2c(c(C(F)(F)F)c1)CN(c1cccc(C3(Cc4nncn4C)COC3)c1)C2=O` [Compound 385, 6-(3,5-dimethyl-1H-pyrazol-4-yl)-2-(3-{3-[(4-methyl-4H-1,2,4-triazol-3-yl)methyl]oxetan-3-yl}phenyl)-4-(trifluoromethyl)-2,3-dihydro-1H-isoindol-1-one], in test [3], the fold induction at 1 µM was 0.101 to 0.15 and the fold induction at 8 µM was > 0.201. Besides, in test [4], the fold induction at 1 µM is > 1 and the fold induction at 8 µM was > 1. In test [1], the “CD69 MFI AUC” value is “C (C indicates 1.01-1.50)”. In test [2], the fold induction at 0.37 µM was ≤ 2.5, the fold induction at 1.11 µM was ≤ 2.5 and the fold induction at 10 µM is > 4.01.

`C[C@H](Cc1nncn1C)c1cccc(N2Cc3c(cc(CN4CC(O)C4)cc3C(F)(F)F)C2=O)c1` [Compound 393, (R)-6-((3-hydroxyazetidin-1-yl)methyl)-2-(3-(1-(4-methyl-4H-1,2,4-triazol-3-yl)propan-2-yl)phenyl)-4-(trifluoromethyl)isoindolin-1-one]: in test [3], the fold induction at 1 µM was > 0.201 and the fold induction at 8 µM is > 0.201. In test [4], the fold induction at 1 µM is > 1 and the fold induction at 8 µM was > 1. Besides, the “CD69 MFI AUC” value in test [1] was “B (B indicates 0.5-1.00)”. Besides, in test [2], the fold induction at 0.37 µM is ≤ 2.5, the fold induction at 1.11 µM was 2.51 to 4 and the fold induction at 10 µM was > 4.01.

Turning to `C[C@H](Cc1nncn1C)c1cccc(N2Cc3c(cc(CN4CC(C)(O)C4)cc3C(F)(F)F)C2=O)c1` [Compound 397], in test [3], the fold induction at 1 µM lay within 0.151 to 0.2 and the fold induction at 8 µM is > 0.201. Also, in test [4], the fold induction at 1 µM was > 1 and the fold induction at 8 µM was > 1. The “CD69 MFI AUC” value in test [1] was “B (B indicates 0.5-1.00)”. Also, in test [2], the fold induction at 0.37 µM was ≤ 2.5, the fold induction at 1.11 µM is > 4.01 and the fold induction at 10 µM is > 4.01.
